One compound from patent publication US20080293699A1, “Inhibitors of thapsigargin-induced cell death” (priority 2007, published 2008) can be followed below.

“Also recorded” adds a separate entry of the source.

What all share (type): cell-based, rat
In assay [1] the test system is differentiated CSM14.1 cells. Description: ATP content assay, thapsigargin-treated differentiated CSM14.1 cells. Conditions: compound 25 μM with 10 μM thapsigargin, Salubrinal 100 μM. The procedure: Of the 26 compounds shown in Table 9, 16 were subsequently confirmed to protect differentiated CSM14.1 cells from TG-induced cell death. For these assays, CSM14.1 cells were differentiated by culture in 2% FBS for 7 days at non-permissive temperature of 39° C. […] CSM14.1 cells were plated at 1,500 cells per well in 96-well plates, and cultured overnight at 32° C. (permissive temperature; FIG. 14, left) or at 39° C. (non-permissive temperature, FIG. 14, right) for 7 days. […] ATP content was measured, and data were expressed as a percentage of control cells treated only with 1% DMSO (mean ±SD; n=3). Two percent FBS was used during differentiation, but all assays were performed in 10% FBS.
For PC12, cells were stimulated with 20 ng/ml NGF for five days; for C17.2, cells were stimulated with serum reduction, and 1% N2 incubation for three days; for CSM14.1, cells were cultured at 39° C. for 5-7 days.
CSM14.1 cells were plated at 1,500 cells per well in 96-well plates and cultured at 39° C. (non-permissive temperature) for 7 days. […] ATP content was measured and data were expressed as a percentage of control cells treated with only 1% DMSO.

A further assay deals with CSM 14.1 cells. Briefly: MTS assay of thapsigargin-induced death of CSM 14.1 cells. Conditions: salubrinal two hours before 7.5 mM thapsigargin, 18 hours. The procedure: CSM 14.1 cells were plated at a density of 3×10^3 cells per well in 96-well plates and incubated overnight. The indicated concentration of salubrinal was pre incubated with cells for two hours, followed by […] thapsigargin treatment. 18 hours later, cell death rates were measured by the MTS assay. For the MTS assay, the CellTiter 960 Aqueous Non-radioactive Cell Proliferation Assay kit (Promega) was used. The reaction-ready solution was made according to the manufacturer's protocol, and each treated well of the 96-well plate was incubated with 20 μl of the reaction-ready solution. The plates were incubated humidified cell incubator at 37° C. with 5% CO2 for two hours, and the absorbance of each well was read by an ELISA plate reader at 490 nm wavelength. To determine the background level of absorbance, the same volume of culture media (DMEM without cells) was incubated with MTS solution. The background value was subtracted from the value of each well. Background values from the control treatment (no TG, no Sal) wells were set as 100% survival, and the experimental wells' values were evaluated as the percentage of the control value.
For orientation: Tetrazolium dyes change colour on reduction, which living cells bring about.

Assay [2] concerns CSM14.1 cells. Description: Primary HTS assay: ATP content (ATPlite) of undifferentiated CSM14.1 cells challenged with thapsigargin. Conditions: 100 μM Salubrinal, 15 μM TG, undifferentiated CSM14.1, ATP. In a few lines: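 Undifferentiated CSM14.1 cells, 3,000/well, cultured overnight at 32 °C, then test compounds at ~15 μg/mL final (1% DMSO) added. Thapsigargin ~15 μM final given after 2 h; ATPlite luminescence read after 24 h as survival surrogate, with 100 μM Salubrinal as maximum and DMSO as minimum.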

Assay [3] concerns CSM14.1 cells. Briefly: Tunicamycin-induced cell death of CSM14.1 cells. Conditions: 100 μm salubrinal; stated in the description of FIG. 13 (tunicamycin, annexin V flow cytometry). The procedure: CSM 14.1 cells were plated at a density of 3×10^3 cells/well in 96-well plates and incubated overnight. Cells were pre-incubated with 25 μM of each compound or 100 μM salubrinal for two hours, followed by […] tunicamycin treatment. 72 hours later, cell death rates were measured by flow cytometry analysis. Annexin V-negative population was considered as survivors. In FIG. 13, the white column represents 0.5% DMSO control showing 24% of survival, and the gray column 100 μM salubrinal. Black columns are data from each compound (25 μM) (compound numbers refer to the compounds in Table 9).
For the experiments shown in FIG. 18, undifferentiated CSM 14.1 cells were plated at 3,000 cells per well in 96-well plates (for the ATP assay) or at 1×10^4 cells per well in 24-well plates (for flow cytometry). The next day, cells were treated with DMSO (0.5%) or hit compounds 25 μM of a compound with 0.5% DMSO final concentration) for two hours, followed by treatment with various cell death-inducing reagents, including 15 μM Thapsigargin (TG) for 24 hrs, 10 μg/mL tunicamycin (TU) for 72 hrs, 2.5 μM staurosporine (STS) for 24 hrs, 50 μM VP16 for 48 hrs, or 30 ng/mL TNF plus 10 μg/mL cyclohexamide (CHX) for 24 hrs. Cellular ATP content was measured for staurosporine samples and TNF/CHX samples, normalizing data relative to cells treated with DMSO alone (the control) and presenting as a percentage of control. For measuring cell death resulting from treatment with tunicamycin and VP16, flow cytometry was used. All assays were performed in triplicate (mean ±SD).
In general terms: Flow cytometry measures light scatter and fluorescence of single cells or particles in a stream.

On to `O=C(/C=C/c1ccccc1)NC(NC(=S)Nc1cccc2cccnc12)C(Cl)(Cl)Cl` (centres unmarked) [Salubrinal, reference compound], for which the “Protection of differentiated CSM14.1 cells from thapsigargin-induced death” value in assay [1] is “protects”. The “Inhibition of thapsigargin-induced cell death, MTS assay” value with CSM 14.1 cells was “less efficiently than our hit compounds”. The “Protection against TG-induced cell death by Salubrinal” value in the assay on CSM14.1 cells [2] is recorded as “significantly protected; also recorded: protects”; in the assay with CSM14.1 cells [2] (listed as Sal) it was “protects”. The “Inhibition of tunicamycin-induced cell death” value in the assay with CSM14.1 cells [3] is 75%.
